Measured values published in patent US10155021B2, “Antimicrobial 4-oxoquinolizines” (Emergent Product Development Gaithersburg Inc., priority 2011, dated 2018).
Read-outs that look alike come from different tables or passages of the source.

Experiments:
A. baumannii A472 [1] = assay: MIC determination for Acinetobacter strains (Example 3); type: cell-based; conditions: LEV R, CIP R, MRP I, IMP I, AMK R, TET R
A. baumannii A401 [2] = assay: Preliminary MBC without and with sub-inhibitory polymyxin B (Example 4); type: cell-based, Acinetobacter baumannii; conditions: Acinetobacter baumannii, A401, A baumannii A 401; without polymyxin B; preliminary MBC; 1st experiment; read-out: MBC without PB
A. baumannii A473 [3] = assay: MIC without and with sub-inhibitory polymyxin B (Example 4); type: cell-based, Acinetobacter baumannii; conditions: Acinetobacter baumannii, A473, A. baumannii A473, without polymyxin B
A. baumannii A390 [4] = assay: MIC determination for Acinetobacter strains (Example 3); type: cell-based; conditions: LEV R, CIP R, MRP R, IPM I, AMK R, TET I
A. baumannii A387 [5] = assay: Preliminary MBC without and with sub-inhibitory polymyxin B (Example 4); type: cell-based, Acinetobacter baumannii; conditions: Acinetobacter baumannii, A387, A. baumannii A387, without polymyxin B, 2nd experiment, read-out: MBC without PB
A. baumannii A401 [6] = assay: MIC without and with sub-inhibitory polymyxin B (Example 4); type: cell-based, Acinetobacter baumannii; conditions: Acinetobacter baumannii, A401, A baumannii A 401, without polymyxin B, read-out: MIC without PB
A. baumannii A390 [7] = assay: as above; type: cell-based, Acinetobacter baumannii; conditions: Acinetobacter baumannii, A390, A. baumannii A390, without polymyxin B, read-out: MIC without PB
A. baumannii A489 [8] = assay: Preliminary MBC without and with sub-inhibitory polymyxin B (Example 4); type: cell-based, Acinetobacter baumannii; conditions: Acinetobacter baumannii, A489, A. baumannii A489, without polymyxin B, read-out: MBC without PB
A. baumannii A489 [9] = assay: MIC without and with sub-inhibitory polymyxin B (Example 4); type: cell-based, Acinetobacter baumannii; conditions: Acinetobacter baumannii, A489, A. baumannii A489, without polymyxin B
A. baumannii A473 [10] = assay: Preliminary MBC without and with sub-inhibitory polymyxin B (Example 4); type: cell-based, Acinetobacter baumannii; conditions: Acinetobacter baumannii, A473, A. baumannii A473, without polymyxin B, read-out: MBC without PB
A. baumannii A472 [11] = assay: MIC without and with sub-inhibitory polymyxin B (Example 4); type: cell-based, Acinetobacter baumannii; conditions: for MIC: Acinetobacter baumannii, A472, A. baumannii A472, without polymyxin B, read-out: MIC without PB
A. baumannii A 401 = assay: MIC determination for Acinetobacter strains (Example 3); type: cell-based; conditions: A401, LEV R, CIP R, AMK R, TET R
A. baumannii A472 [12] = assay: Preliminary MBC without and with sub-inhibitory polymyxin B (Example 4); type: cell-based, Acinetobacter baumannii; conditions: Acinetobacter baumannii, A472, A. baumannii A472, without polymyxin B, read-out: MBC without PB
A. baumannii A387 [13] = assay: MIC without and with sub-inhibitory polymyxin B (Example 4); type: cell-based, Acinetobacter baumannii; conditions: Acinetobacter baumannii, A387, A. baumannii A387; without polymyxin B; 2nd experiment; visual reading; read-out: MIC without PB
[14] = test system: Acinetobacter sp. (H064200250); assay: Preliminary MBC without and with sub-inhibitory polymyxin B (Example 4); type: cell-based; conditions: Acinetobacter, without polymyxin B, preliminary MBC, read-out: MBC without PB
Description: The plates were incubated for 18-20 hours at 37° C. The MBC was read as the lowest concentration at which colony growth was ca. 90% less than the positive control (i.e. usually where single colonies or no colonies were observed).

[15] = test system: resistant strains of A. baumannii and one strain of Acinetobacter sp.; assay: MIC without and with sub-inhibitory polymyxin B, whole panel / MIC ranges (Example 4; also strains not listed separately); type: cell-based; conditions: Acinetobacter baumannii
A. baumannii ATCC 19606 = assay: MIC without and with sub-inhibitory polymyxin B (Example 4); type: cell-based, Acinetobacter baumannii; conditions: Acinetobacter baumannii, ATCC19606, A. baumannii ATCC 19606; without polymyxin B; 2nd experiment; second reading marked *, mark not explained; read-out: MIC without PB, value in parentheses marked *
[16] = test system: Acinetobacter sp. (H064200250); assay: as above; type: cell-based; conditions: Acinetobacter, without polymyxin B, read-out: MIC without PB
A. baumannii A473 [17] = assay: MIC determination for Acinetobacter strains (Example 3); type: cell-based; conditions: LEV R, CIP R, MRP R, IMP R, AMK R, TET R
[18] = test system: 11 strains of A. baumannii and one strain of Acinetobacter sp.; assay: Preliminary MBC without and with sub-inhibitory polymyxin B, whole panel (Example 4; also strains not listed separately); type: cell-based; conditions: Acinetobacter baumannii, NCTC13301, A. baumannii NCTC 13301, without polymyxin B, 2nd experiment, read-out: MBC without PB
[19] = test system: Acinetobacter spp. H064200250; assay: MIC determination for Acinetobacter strains (Example 3); type: cell-based, Acinetobacter sp.; conditions: LEV R, CIP R, MRP R, IMP I
A. baumannii A329 = assay: MIC without and with sub-inhibitory polymyxin B (Example 4); type: cell-based, Acinetobacter baumannii; conditions: Acinetobacter baumannii, A329, read-out: MIC +0.06 μg/ml PB, read with alamar blue, A. baumannii A329; +0.06 μg/ml polymyxin B; 2nd experiment; MIC read with alamar blue
A. baumannii A489 [20] = assay: MIC determination for Acinetobacter strains (Example 3); type: cell-based; conditions: LEV R, CIP R, MRP R, IMP R, AMK R, TET R
[21] = 1st experiment, read-out: MIC without PB
[22] = 2nd experiment, MIC read with alamar blue, read-out: MIC without PB, read with alamar blue
[23] = 2nd experiment, visual reading, read-out: MIC without PB
[24] = Acinetobacter spp. H064200250, 1st experiment

C[C@@H](O)[C@H]1C(=O)N2C(C(=O)O)=C(S[C@@H]3CN[C@H](C(=O)N(C)C)C3)[C@H](C)[C@H]12 [Meropenem, reference compound]
64 µg/mL: MBC (A. baumannii A473 [10]; 1st experiment) | MIC ([15]; NCTC13301, A. baumannii NCTC 13301, without polymyxin B, 2nd experiment, visual reading, read-out: MIC without PB) | MIC (A. baumannii ATCC 19606) | MBC [18] | MIC (A. baumannii A329)
≥ 64 µg/mL: MIC ratio without/with polymyxin B (A. baumannii A472 [11]; A. baumannii A472, ratio MIC without PB to MIC + PB, PB […], 2nd experiment)
16 µg/mL: MBC (A. baumannii A401 [2]) | MIC (A. baumannii A473 [3]; [21]) | MIC (A. baumannii A473 [3]; [23]) | MIC (A. baumannii A401 [6]; 2nd experiment, visual reading) | MBC (A. baumannii A489 [8]; 2nd experiment) | MIC (A. baumannii A489 [9]; [21]) | MIC (A. baumannii A489 [9]; [23]) | MBC (A. baumannii A473 [10]; 2nd experiment) | MBC ([14]; Acinetobacter spp. H064200250 (OXA51), 2nd experiment) | MBC [14, 24] | MIC ([16]; Acinetobacter spp. H064200250 (OXA51), 2nd experiment, visual reading) | MIC (A. baumannii A473 [17]) | MIC (A. baumannii A489 [20])
1 to 32 µg/mL: MIC ([15]; read-out: MIC range without PB 01-10-2008 n = 8, without polymyxin B, 1st experiment, 8 strains)
8 µg/mL: MIC (A. baumannii A472 [1]) | MBC (A. baumannii A387 [5]) | MBC (A. baumannii A489 [8]; 1st experiment) | MIC (A. baumannii A472 [11]; 1st experiment) | MIC (A. baumannii A472 [11]; 2nd experiment, visual reading) | MBC (A. baumannii A472 [12]; 1st experiment) | MBC (A. baumannii A472 [12]; 2nd experiment) | MIC (A. baumannii A387 [13])
32 µg/mL: MIC (A. baumannii A473 [3]; [22]) | MIC (A. baumannii A390 [4]) | MIC (A. baumannii A401 [6]; 1st experiment) | MIC (A. baumannii A390 [7]; 1st experiment) | MIC (A. baumannii A390 [7]; 2nd experiment, visual reading) | MIC (A. baumannii A489 [9]; [22]) | MIC (A. baumannii A 401) | MIC ([15]; NCTC13301, A. baumannii NCTC 13301, without polymyxin B, 1st experiment, read-out: MIC without PB) | MIC [16, 24] | MIC [19]
